Values belong to the compound of their own block, whether it stands above or below them.
Experiments:
[1] = target: T1, purified human PGAM1 proteins (recombinant PGAM1) (Homo sapiens, UniProt P18669); assay: In vitro PGAM1 enzyme assay (coupled enolase/PKM1/LDH, NADH oxidation); format: biochemical; conditions: for relative PGAM1 inhibitory potency in vitro: purified recombinant PGAM1, comparison among alizarin, alizarin Red S and PGMI-004A; for screening outcome (PGAM1 primary screen, enolase secondary screen): library screen with coupled PGAM1 and enolase assays
T1 construct: (His)6; made in house; host or cells: E. coli BL21(DE3)pLysS (pET53 vector)
Procedure: An in vitro PGAM1 assay was performed as primary screening. PGAM1 enzyme mix was prepared containing 100 mM Tris-HCl, 100 mM KCl, 5 mM MgCl2, 1 mM ADP, 0.2 mM NADH, 5 mg/ml recombinant PGAM1, 0.5 units/ml enolase, 0.5 units/ml recombinant pyruvate kinase M1, and 0.1 units/ml recombinant LDH. 3-PG was added last at the final concentration of 2 mM to initiate the reaction. […] An in vitro enolase assay as secondary screening was also performed. Enolase enzyme mix was prepared containing 100 mM Tris-HCl, 100 mM KCl, 5 mM MgCl2, 1 mM ADP, 0.2 mM NADH, 0.5 units/ml enolase, 0.5 units/ml recombinant pyruvate kinase M1, and 0.1 units/ml recombinant LDH. 2-PG was added last at the final concentration of 2 mM to initiate the reaction. […] Assay was carried out in Tris-HCl buffer (10 mM Tris, pH 7.4, 100 mM NaCl) containing 5% DMSO.
PGAM1 activity was measured by multiple enzymes coupled assay. PGAM1 enzyme mix containing 100 mM Tris-HCl, 100 mM KCl, 5 mM MgCl2, 1 mM ADP, 0.2 mM NADH, 5 mg/ml recombinant PGAM1, 0.5 units/ml enolase, 0.5 units/ml recombinant pyruvate kinase M1, and 0.1 units/ml recombinant LDH was prepared. 3-PG was added last at a final concentration of 2 mM to initiate the reaction.

[2] = tested on: Y26 phosphorylation of PGAM1; assay: PGAM1 Y26 phosphorylation in human cancer cell lines; format: cell-based; conditions: pertinent human cancer cell lines (KG1a, HEL)
PGAM1 = PGAM1 (Homo sapiens, UniProt P18669); conditions: cited from earlier work
[3] = target: T2, 6PGD (H1299 cell lysates or recombinant 6PGD) (Homo sapiens, UniProt P52209); assay: 6PGD enzyme assay; format: biochemical
T2 construct: endogenous in cells; host or cells: H1299 cell lysates; part of the results with recombinant 6PGD of unstated origin
T2 sequence (P52209 1-483): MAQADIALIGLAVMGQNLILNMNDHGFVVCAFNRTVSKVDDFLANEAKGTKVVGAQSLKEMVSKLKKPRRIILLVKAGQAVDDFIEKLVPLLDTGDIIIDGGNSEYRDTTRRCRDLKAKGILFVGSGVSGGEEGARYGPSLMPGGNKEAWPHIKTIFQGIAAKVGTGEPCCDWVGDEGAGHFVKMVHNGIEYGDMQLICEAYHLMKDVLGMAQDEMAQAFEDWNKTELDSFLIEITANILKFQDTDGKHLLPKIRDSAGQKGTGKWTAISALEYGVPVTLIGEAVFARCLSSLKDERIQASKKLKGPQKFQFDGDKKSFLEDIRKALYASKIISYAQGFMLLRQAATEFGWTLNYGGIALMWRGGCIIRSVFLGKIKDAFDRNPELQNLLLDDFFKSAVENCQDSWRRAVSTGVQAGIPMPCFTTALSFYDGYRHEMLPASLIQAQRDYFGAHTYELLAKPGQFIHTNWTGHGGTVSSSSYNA
Procedure: (§1) G6PD activity was determined by the NADPH production rate from G6PD and 6PGD, then subtracting that of 6PGD, since a product of G6PD, 6-phosphogluconolactone, is rapidly hydrolyzed to a substrate of 6PGD, 6-phosphogluconate, in cells. To obtain the combined dehydrogenase activity, substrates for both dehydrogenase enzymes were added to a cuvette. In another cuvette, substrates for the second enzyme, 6PGD, were added to obtain the activity of this enzyme. Substrate concentrations were as follows: 0.2 mM glucose 6-phosphate, 0.2 mM 6-phosphogluconate, and 0.1 mM NADP^+. 10 μg of cell lysates or 1 μg of recombinant protein were added to a cuvette containing buffer (50 mM Tris, 1 mM MgCl2, pH 8.1) and then the reaction was initiated by NADP^+. The increase of absorbance at 341 nm was measured by a DU800 spectrophotometer (Beckman).

[4] = target: T3, PHGDH (PGAM1 knockdown cell lysates or recombinant PHGDH) (Homo sapiens, UniProt O43175); assay: PHGDH enzyme assay; format: biochemical
T3 construct: endogenous in cells; also recombinant rPHGDH of unstated origin
T3 sequence (O43175 1-533): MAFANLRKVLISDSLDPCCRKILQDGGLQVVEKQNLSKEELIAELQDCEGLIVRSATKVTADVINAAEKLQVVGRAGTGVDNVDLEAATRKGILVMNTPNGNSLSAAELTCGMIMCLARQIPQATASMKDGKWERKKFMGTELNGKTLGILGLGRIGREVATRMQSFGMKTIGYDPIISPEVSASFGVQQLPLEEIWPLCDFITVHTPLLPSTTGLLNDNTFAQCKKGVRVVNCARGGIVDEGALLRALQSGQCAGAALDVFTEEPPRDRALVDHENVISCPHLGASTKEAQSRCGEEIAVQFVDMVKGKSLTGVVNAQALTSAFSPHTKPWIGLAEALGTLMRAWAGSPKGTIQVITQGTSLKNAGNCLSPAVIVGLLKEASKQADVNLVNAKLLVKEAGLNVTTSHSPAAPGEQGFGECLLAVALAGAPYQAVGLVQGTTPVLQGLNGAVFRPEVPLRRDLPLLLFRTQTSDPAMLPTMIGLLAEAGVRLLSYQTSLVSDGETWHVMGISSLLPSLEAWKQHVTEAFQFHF
Procedure: PHGDH activity was spectrophotometrically measured as described previously. PHGDH enzyme buffer containing 200 mM Tris-HCl (pH8.1), 400 mM KCl, 0.6 mM NAD, 2 mM GSH, 10 mM EDTA was mixed with cell lysates or recombinant PHGDH protein. The reaction was initiated by the addition of 3-PG to a final concentration of 10 mM and followed by measuring the increase in absorbance at 340 nm over a 10 min period.

H1299 cells = assay: Cell proliferation assay, H1299; format: cell-based, human; conditions: H1299 cells
Procedure: (§2) For leukemia cell proliferation assay, 10×10^4 cells were seeded in non-tissue culture coated 6-well plate and incubated at 37° C. for indicated times. Cell numbers were counted by trypan blue exclusion under a microscope (×40) at indicated times and the percentage of cell proliferation was determined by comparing PGAM1 knockdown cells to pLKO.1 vector expressing cells. […] Cell viability was determined by counting drug-treated cells compared to DMSO-treated control cells with trypan blue exclusion under a microscope (×40) and by using CellTiter96Aqueous One solution proliferation kit (Promega). For adherent cell proliferation assay such as H1299 and MDA-MB231 cells, 5×10^4 cells were seeded in 6-well plate 24 h before the assay starts and were cultured at 37° C. 24 h after seeding, cells were treated with 5 μM Methyl-2PG and incubated at 37° C. for indicated times. Cell proliferation was determined by the increase in cell number indicated times after the treatment starts compared to that at the treatment starts for each cell line (T=0). Cell numbers were counted by trypan blue exclusion under a microscope (×40). For adherent cell viability assay with trypan blue exclusion, 5×10^4 cells were seeded in 6-well plate 24 h before the assay starts and were cultured at 37° C. […] Cell viability was determined by counting drug-treated cells compared to DMSO-treated control cells with trypan blue exclusion under a microscope (×40). For MTT cell viability assay of adherent cells, 5×10^3 cells were seeded in 96-well plate 24 h before the assay starts and were cultured at 37° C. […] Cell viability was determined by using CellTiter96Aqueous One solution proliferation kit (Promega).

[5] = tested on: human leukemia KG1a cells; assay: Cell proliferation/viability assay, KG1a; format: cell-based; conditions: increasing concentrations (72h)
Procedure: as §2, with “(×40).” for “(×40). For adherent cell viability assay with trypan blue exclusion, 5×10^4 cells were seeded in 6-well plate 24 h before the assay starts and were cultured at 37° C.”, “(×40).” for “(×40). For MTT cell viability assay of adherent cells, 5×10^3 cells were seeded in 96-well plate 24 h before the assay starts and were cultured at 37° C.”

6PGD = target: T4, 6PGD (Homo sapiens, UniProt P52209); format: binding
T4 sequence (P52209 1-483): T2 sequence (P52209 1-483)
Procedure: In brief, thermal shift assay of compound-protein interaction was performed in 384-well PCR plates with various compound concentrations and 200 μg/ml protein in a buffer solution (20 mM Tris-HCl, 100 mM NaCl, pH 7.4). SYPRO orange was used as a dye to monitor the fluorescence change at 610 nm. Small molecules were dissolved in DMSO and added to protein solution. Final DMSO concentration of solution is 1%. Dissociation constants (Kds) for protein-ligand interaction were calculated using the method as described.
The fluorescence intensity data were fitted to Eq. (1) to obtain ΔHu, ΔCpu, and Tm by nonlinear regression using the program Prism:
The thermal unfolding parameters for 6PGD and PGAM1 alone were determined from 4 control wells, each containing 0.2 mg/mL protein.

[6] = target: T5, G6PD (H1299 cell lysates or rG6PD) (Homo sapiens, UniProt P11413); assay: G6PD enzyme assay; format: biochemical; conditions: increasing concentrations of 3-PG
T5 construct: endogenous in cells; host or cells: H1299 cell lysates; also recombinant rG6PD of unstated origin
Procedure: as §1

T1 sequence (P18669 whole entry): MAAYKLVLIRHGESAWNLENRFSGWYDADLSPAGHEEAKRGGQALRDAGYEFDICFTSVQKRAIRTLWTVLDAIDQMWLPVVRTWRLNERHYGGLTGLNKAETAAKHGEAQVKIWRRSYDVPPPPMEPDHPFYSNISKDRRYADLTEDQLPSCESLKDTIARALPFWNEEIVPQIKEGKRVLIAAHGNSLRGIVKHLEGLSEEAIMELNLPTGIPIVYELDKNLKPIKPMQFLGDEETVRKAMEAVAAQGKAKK
Chain of PGAM1 (P18669 whole entry): as above
T5 sequence (P11413 whole entry): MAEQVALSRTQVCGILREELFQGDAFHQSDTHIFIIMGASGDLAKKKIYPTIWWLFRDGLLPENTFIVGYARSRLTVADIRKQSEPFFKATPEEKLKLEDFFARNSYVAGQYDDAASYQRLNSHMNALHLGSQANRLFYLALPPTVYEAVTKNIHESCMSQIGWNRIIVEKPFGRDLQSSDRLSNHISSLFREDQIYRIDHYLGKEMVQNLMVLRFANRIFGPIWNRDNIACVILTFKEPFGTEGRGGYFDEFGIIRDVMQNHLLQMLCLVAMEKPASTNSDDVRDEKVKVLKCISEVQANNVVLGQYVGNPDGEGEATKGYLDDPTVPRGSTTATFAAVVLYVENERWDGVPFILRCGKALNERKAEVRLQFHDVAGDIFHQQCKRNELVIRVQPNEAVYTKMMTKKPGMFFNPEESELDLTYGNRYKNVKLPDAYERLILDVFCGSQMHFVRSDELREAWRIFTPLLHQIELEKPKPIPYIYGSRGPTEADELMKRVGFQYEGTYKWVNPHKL

relative PGAM1 inhibitory potency in vitro ([1]; listed as Alizarin Red S): more potent PGAM1 inhibitor
Structure (SMILES): O=C1c2ccccc2C(=O)c2c1cc(S(=O)(=O)O)c(O)c2O [alizarin Red S, 3,4-dihydroxy-9,10-dioxo-9,10-dihydroanthracene-2-sulfonic acid]
relative PGAM1 inhibitory potency in vitro [1]: more potent PGAM1 inhibitory potential compared to alizarin

Structure (SMILES): N#C/C(=C/c1ccc(O)c(O)c1)C(=O)NCc1ccccc1 [AG490]
Y26 phosphorylation of PGAM1 [2]: decreased Y26 phosphorylation of PGAM1

screening outcome (PGAM1 primary screen, enolase secondary screen) [1]: identified as PGAM1 inhibitors
Structure (SMILES): O=CC=Cc1ccc(O)cc1 [p-hydroxycinnamaldehyde]

Structure (SMILES): C#CCCCC(=O)OC(C)(C)C1CCC2(CO2)C(OC(=O)NC(Cc2c[nH]c3ccccc23)C(=O)OCc2ccccc2)C1 (stereo not shown) [MJE3]
PGAM1 activity (reported) (PGAM1; Evans et al., 2007, 2005): specifically inhibits PGAM1 activity exclusively in intact cells
cancer cell proliferation (reported) (PGAM1): attenuates cancer cell proliferation

Structure (SMILES): Oc1c(Cl)cc(Cl)c(Cl)c1Cc1c(O)c(Cl)cc(Cl)c1Cl [hexachlorophene]
screening outcome (PGAM1 primary screen, enolase secondary screen) [1]: identified as PGAM1 inhibitors

6PGD enzyme activity ([3]; 2-PG treatment, H1299 cell lysates or r6PGD): did not affect 6PGD enzyme activity
PHGDH enzyme activity ([4]; ~45 μM or ~60 μM 2-PG, H1299 PGAM1 knockdown cell lysates): higher PHGDH enzyme activity
Structure (SMILES): O=C(O)[C@@H](CO)OP(=O)(O)O [2-PG, 2-phosphoglycerate]
enzyme activity of recombinant PHGDH (rPHGDH) ([4]; increasing concentrations of 2-PG): increased enzyme activity of recombinant PHGDH
PHGDH activity ([4]; ~15 μM 2-PG): did not significantly affect PHGDH activity

Structure (SMILES): O=C1c2ccccc2C(=O)c2c1ccc(O)c2O [alizarin, 1,2-Dihydroxyanthraquinone]
screening outcome (PGAM1 primary screen, enolase secondary screen) [1]: identified as PGAM1 inhibitors
cell proliferation (H1299 cells): decreased proliferation
cell proliferation [5]: decreased proliferation

Structure (SMILES): CN1CCN(c2ccc3nc(-c4c(N)c5c(F)cccc5[nH]c4=O)[nH]c3c2)CC1 [TKI258]
Y26 phosphorylation of PGAM1 [2]: decreased Y26 phosphorylation of PGAM1

Structure (SMILES): O=C(O)[C@H](O)COP(=O)(O)O [3-PG, 3-phosphoglycerate]
6PGD melting temperature (Tm) (6PGD; increasing concentrations, 100 μM to 25 mM): raises 6PGD melting temperature (Tm) in a dose-dependent manner
Kd (6PGD; read-out: Kd for interaction with 6PGD): 460 ± 40 µM
Ki ([3]; Dixon plot, read-out: inhibition constant (Ki) for 6PGD): 489 ± 13 µM
mode of 6PGD inhibition ([3]; Lineweaver-Burk plot, ~250 μM 3-PG, ~35 μM 6-PG): competitive inhibitor
6PGD enzyme activity ([3]; ~60 μM 3-PG (physiological), H1299 cell lysates or recombinant 6PGD): do not significantly affect 6PGD enzyme activity
6PGD enzyme activity ([3]; ~250 μM 3-PG, H1299 cell lysates or recombinant 6PGD): decreased enzyme activity of 6PGD
G6PD activity [6]: did not significantly affect G6PD activity
